The results in this text go back to US20260347373A1, “HETEROCYCLIC COMPOUNDS, COMPOSITIONS THEREOF, AND METHODS OF TREATMENT THEREWITH” (BeOne Medicines I GmbH, priority 2023, published 2026).

Read-outs that look alike come from different tables or passages of the source.

The target of one assay is KRAS G12D (Homo sapiens, UniProt P01116, G12D). The assay is described as follows: KRAS G12D Probe Displacement Assay (TR-FRET, GDP-loaded). Type of assay: binding. The source says: (§1) The synthetic routes of probe 1 and 2, which have been disclosed in PCT/CN2022/070676, are hereby incorporated herein.
Chain of KRAS G12D (P01116 1-188 isoform P01116-2 G12D): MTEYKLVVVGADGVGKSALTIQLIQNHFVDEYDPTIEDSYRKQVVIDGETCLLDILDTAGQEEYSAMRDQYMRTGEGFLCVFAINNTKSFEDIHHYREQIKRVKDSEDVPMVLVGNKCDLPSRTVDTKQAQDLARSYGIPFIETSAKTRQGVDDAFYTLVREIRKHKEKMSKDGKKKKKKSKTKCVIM
In another assay the target is WT KRAS (Homo sapiens, UniProt P01116). Description: KRAS WT Probe Displacement Assay (TR-FRET, GDP-loaded). In kind it is binding.
Chain of WT KRAS (P01116 1-188 isoform P01116-2): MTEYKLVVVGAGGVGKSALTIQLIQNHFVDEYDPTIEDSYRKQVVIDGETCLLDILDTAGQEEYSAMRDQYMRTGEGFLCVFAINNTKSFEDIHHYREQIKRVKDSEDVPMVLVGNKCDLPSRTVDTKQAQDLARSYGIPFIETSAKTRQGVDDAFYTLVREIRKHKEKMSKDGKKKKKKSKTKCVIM
Text: as §1

Where [1] appears, read: KRAS G12D, read-out: KRAS^G12D Probe Displacement Assay IC50.
Where [2] appears, read: KRAS WT, read-out: KRAS^WT Probe Displacement Assay IC50.
The mark [3] stands for this setting: KRAS^G12D Probe Displacement Assay IC50, KRAS G12D.
[4] abbreviates: KRAS^WT Probe Displacement Assay IC50, KRAS WT.

For the compound `Cc1cc(N)cc(-c2nc3c4c(nc(O[C@@H](C)[C@@H]5C[C@@H](F)CN5C)nc4c2F)N2C[C@H]4CC[C@H](N4)[C@H]2CCO3)c1C(F)(F)F` [Example 74, 3-((6aR,7S,10R)-1-fluoro-13-((S)-1-((2S,4R)-4-fluoro-1-methylpyrrolidin-2-yl)ethoxy)-5,6,6a,7,8,9,10,11-octahydro-4-oxa-3,11a,12,14,15-pentaaza-7,10methanocyclohepta[4,5]cycloocta [1,2,3-de]naphthalen-2-yl)-5-methyl-4-(trifluoromethyl)aniline], the IC50 on KRAS G12D (setting [1]) was below 0.3 nM; at WT KRAS (setting [2]) it was 3 to 1000 nM.

With `Cc1cc(N)cc(-c2nc3c4c(nc(OCC5(C)CN(CC6CC6)CC/C5=C\F)nc4c2F)N2C[C@H]4CC[C@H](N4)[C@H]2CCO3)c1C(F)(F)F` (single isomer, unassigned) [Example 238], the IC50 at KRAS G12D (setting [1]) is below 0.3 nM; at WT KRAS (setting [2]), 3 to 1000 nM.

As for `Cc1cc(N)cc(-c2nc3c4c(nc(OC[C@@]56CCCN5CC(F)(F)C6)nc4c2F)N2C[C@H]4CC[C@H](N4)[C@H]2CCO3)c1C(F)(F)F` [Example 33, 3-((6aR,7S,10R)-13-(((S)-2,2-difluorotetrahydro-1H-pyrrolizin-7a(5H)-yl)methoxy)-1-fluoro-5,6,6a,7,8,9,10,11-octahydro-4-oxa-3,11a,12,14,15-pentaaza-7,10-methanocyclohepta[4,5]cycloocta [1,2,3-de]naphthalen-2-yl)-5-methyl-4-(trifluoromethyl)aniline], the IC50 at KRAS G12D (setting [1]) is below 0.3 nM; at WT KRAS (setting [2]) it was 3 to 1000 nM.

As for `Cc1cc(N)cc(-c2nc3c4c(nc(O[C@@H](C)[C@@H]5CC6(CN5C)CC6(F)F)nc4c2F)N2C[C@H]4CC[C@H](N4)[C@H]2CCO3)c1C(F)(F)F` (single isomer, unassigned) [Example 224], the IC50 at KRAS G12D (setting [1]) is below 0.3 nM; on WT KRAS (setting [2]), 3 to 1000 nM.

Regarding `Cc1cc(N)cc(-c2nc3c4c(nc(OCC5(CN6CCC(F)(F)C6)CC5)nc4c2F)N2C[C@H]4CC[C@H](N4)[C@H]2CCO3)c1C(F)(F)F` [Example 89, 3-((6aR,7S,10R)-13-((1-((3,3-difluoropyrrolidin-1-yl)methyl)cyclopropyl)methoxy)-1-fluoro-5,6,6a,7,8,9,10,11-octahydro-4-oxa-3,11a,12,14,15-pentaaza-7,10-methanocyclohepta [4,5]cycloocta [1,2,3-de]naphthalen-2-yl)-5-methyl-4-(trifluoromethyl) aniline], the IC50 was below 0.3 nM on KRAS G12D (setting [3]) and 3 to 1000 nM on WT KRAS (setting [4]).

With `Cc1cc(N)cc(-c2nc3c4c(nc(OC[C@]56C[C@H](F)CN5C[C@H](F)C6)nc4c2F)N2C[C@H]4CC[C@H](N4)[C@H]2CCO3)c1C(F)(F)F` [Example 35], the IC50 on KRAS G12D (setting [1]) was in the range of 0.3 to 3 nM; on WT KRAS (setting [2]), 3 to 1000 nM.

With `Cc1cc(N)cc(-c2nc3c4c(nc(OCC5(CN6CCC[C@H]6C)CC5)nc4c2F)N2C[C@H]4CC[C@H](N4)[C@H]2CCO3)c1C(F)(F)F` [Example 122, 3-((6aR,7S,10R)-1-fluoro-13-((1-(((R)-2-methylpyrrolidin-1-yl)methyl)cyclopropyl)methoxy)-5,6,6a,7,8,9, 10,11-octahydro-4-oxa-3,11a,12,14,15-pentaaza-7,10-methanocyclohepta [4,5]cycloocta [1,2,3-de]naphthalen-2-yl)-5-methyl-4-(trifluoromethyl)aniline], the IC50 on KRAS G12D (setting [1]) is below 0.3 nM; at WT KRAS (setting [2]), 3 to 1000 nM.

As for `Cc1cc(N)cc(-c2nc3c4c(nc(OCC5(CN6CCC(=C(F)F)CC6)CC5)nc4c2F)N2C[C@H]4CC[C@H](N4)[C@H]2CCO3)c1C(F)(F)F` [Example 146, 3-((6aR,7S,10R)-13-((1-((4-(difluoromethylene)piperidin-1-yl)methyl)cyclopropyl)methoxy)-1-fluoro-5,6,6a,7,8,9,10,11-octahydro-4-oxa-3,11a,12,14,15-pentaaza-7,10-methano-cyclohepta[4,5]cycloocta [1,2,3-de]naphthalen-2-yl)-5-methyl-4-(trifluoromethyl) aniline], the IC50 at KRAS G12D (setting [3]) was below 0.3 nM; at WT KRAS (setting [4]), 0.3 to 3 nM.

In the case of `COC1(C)CN(CC2(COc3nc4c5c(nc(-c6cc(N)cc(C)c6C(F)(F)F)c(F)c5n3)OCC[C@@H]3[C@@H]5CC[C@H](CN43)N5)CC2)C1` [Example 84, 3-((6aR,7S,10R)-1-fluoro-13-((1-((3-methoxy-3-methylazetidin-1-yl)methyl)cyclopropyl)methoxy)-5,6,6a,7,8,9,10,11-octahydro-4-oxa-3,11a,12,14,15-pentaaza-7,10-methanocyclohepta [4,5]cycloocta [1,2,3-de]naphthalen-2-yl)-5-methyl-4-(trifluoromethyl)aniline], the IC50 is below 0.3 nM on KRAS G12D (setting [1]) and 3 to 1000 nM at WT KRAS (setting [2]).

For the compound `Cc1cc(N)cc(-c2nc3c4c(nc(OCC56CC(F)CN5CC(F)C6)nc4c2F)N2C[C@H]4CC[C@H](N4)[C@H]2CCO3)c1C(F)(F)F` (stereo partly drawn) [Example 6, 3-((6aR,7S,10R)-13-((2,6-difluorotetrahydro-1H-pyrrolizin-7a(5H)-yl)methoxy)-1-fluoro-5,6,6a,7,8,9,10,11-octahydro-4-oxa-3,11a,12,14,15-pentaaza-7,10-methanocyclohepta[4,5]cycloocta [1,2,3-de]naphthalen-2-yl)-5-methyl-4-(trifluoromethyl)aniline], the IC50 on KRAS G12D (setting [1]) lay in the range of 0.3 to 3 nM; on WT KRAS (setting [2]) it was 3 to 1000 nM.

For `CO[C@H]1CN2C[C@H](F)C[C@]2(COc2nc3c4c(nc(-c5cc(N)cc(C)c5C(F)(F)F)c(F)c4n2)OCC[C@@H]2[C@@H]4CC[C@H](CN32)N4)C1` [Example 214, 3-((6aR,7S,10R)-1-fluoro-13-(((2R,6R,7aS)-2-fluoro-6-methoxytetrahydro-1H-pyrrolizin-7a(5H)-yl)methoxy)-5,6,6a,7,8,9,10,11-octahydro-4-oxa-3,11a,12,14,15-pentaaza-7,10-methanocyclohepta[4,5]cycloocta[1,2,3-de]naphthalen-2-yl)-5-methyl-4-(trifluoromethyl)aniline], the IC50 is below 0.3 nM on KRAS G12D (setting [1]) and 3 to 1000 nM on WT KRAS (setting [2]).

For `Cc1cc(N)cc(-c2nc3c4c(nc(OCC5(CN6CCN(C7COC7)CC6)CC5)nc4c2F)N2C[C@H]4CC[C@H](N4)[C@H]2CCO3)c1C(F)(F)F` [Example 191, 3-((6aR,7S,10R)-1-fluoro-13-((1-((4-(oxetan-3-yl)piperazin-1-yl)methyl)cyclopropyl)methoxy)-5,6,6a,7,8,9,10,11-octahydro-4-oxa-3,11a,12,14,15-pentaaza-7,10-methanocyclohepta[4,5]cycloocta[1,2,3-de]naphthalen-2-yl)-5-methyl-4-(trifluoromethyl)aniline], the values for the IC50 at KRAS G12D (setting [1]) and on WT KRAS (setting [2]) were below 0.3 nM and 3 to 1000 nM, respectively.

As to `COC1CN(CC2(COc3nc4c5c(nc(-c6cc(N)cc(C)c6C(F)(F)F)c(F)c5n3)OCC[C@@H]3[C@@H]5CC[C@H](CN43)N5)CC2)CC1F` (single isomer, unassigned) [Example 186], the IC50 was below 0.3 nM at KRAS G12D (setting [1]) and 3 to 1000 nM at WT KRAS (setting [2]).

With `Cc1cc(N)cc(-c2nc3c4c(nc(OCC5(CN6CC7CC6CC7(F)F)CC5)nc4c2F)N2C[C@H]4CC[C@H](N4)[C@H]2CCO3)c1C(F)(F)F` [Example 174, 3-((6aR,7S,10R)-13-((1-((5,5-difluoro-2-azabicyclo[2.2.1]heptan-2-yl)methyl)cyclopropyl)methoxy)-1-fluoro-5,6,6a,7,8,9,10,11-octahydro-4-oxa-3,11a,12,14,15-pentaaza-7,10-methanocyclohepta[4,5]cycloocta[1,2,3-de]naphthalen-2-yl)-5-methyl-4-(trifluoromethyl)aniline], the IC50 was below 0.3 nM on KRAS G12D (setting [1]) and 3 to 1000 nM at WT KRAS (setting [2]).

Consider `CO[C@@H]1CN2C[C@H](F)C[C@]2(COc2nc3c4c(nc(-c5cc(N)cc(Cl)c5C(F)(F)F)c(F)c4n2)OCC[C@@H]2[C@@H]4CC[C@H](CN32)N4)C1` [Example 217, 3-chloro-5-((6aR,7S,10R)-1-fluoro-13-(((2R,6S,7aS)-2-fluoro-6-methoxytetahydro-1H-pyrrolizin-7a(5H)-yl)methoxy)-5,6,6a,7,8,9,10,11-octahydro-4-oxa-3,11a,12,14,15-pentaaza-7,10-methanocyclohepta[4,5]cycloocta[1,2,3-de]naphthalen-2-yl)-4-(trifluoromethyl)aniline], for which the results for the IC50 at KRAS G12D (setting [1]) and at WT KRAS (setting [2]) were below 0.3 nM and 3 to 1000 nM, respectively.

For the compound `CN(C)C1(C)CN(c2nc3c4c(nc(-c5cc(N)cc(Cl)c5C(F)(F)F)c(F)c4n2)OCC[C@@H]2[C@@H]4CC[C@H](CN32)N4)C1` [Example 31, 1-((6aR,7S,10R)-2-(5-amino-3-chloro-2-(trifluoromethyl)phenyl)-1-fluoro-5,6,6a,7,8,9,10,11-octahydro-4-oxa-3,11a,12,14,15-pentaaza-7,10-methanocyclohepta[4,5]cycloocta [1,2,3-de]naphthalen-13-yl)-N,N,3-trimethylazetidin-3-amine], the IC50 on KRAS G12D (setting [1]) lay within 0.3 to 3 nM; on WT KRAS (setting [2]), 3 to 1000 nM.

`[2H]C([2H])([2H])N1CCC(C(F)F)C(C)(C([2H])([2H])Oc2nc3c4c(nc(-c5cc(N)cc(Cl)c5C(F)(F)F)c(F)c4n2)OCC[C@@H]2[C@@H]4CC[C@H](CN32)N4)C1` (single isomer, unassigned) [Example 246]: the results for the IC50 at KRAS G12D (setting [1]) and at WT KRAS (setting [2]) were 0.3 to 3 nM and 3 to 1000 nM, respectively.

`Cc1cc(N)cc(-c2nc3c4c(nc(OCC5(CN6CC(C)OC(C)C6)CC5(F)F)nc4c2F)N2C[C@H]4CC[C@H](N4)[C@H]2CCO3)c1C(F)(F)F` (single isomer, unassigned) [Example 24]: the IC50 at KRAS G12D (setting [1]) was in the range of 0.3 to 3 nM; at WT KRAS (setting [2]), 3 to 1000 nM.

On to `Cc1cc(N)cc(-c2nc3c4c(nc(OCC5(CN6CCC7(CC6)CC7(F)F)CC5)nc4c2F)N2C[C@H]4CC[C@H](N4)[C@H]2CCO3)c1C(F)(F)F` [Example 158, 3-((6aR,7S,10R)-13-((1-((1,1-difluoro-6-azaspiro[2.5]octan-6-yl)methyl)cyclopropyl)methoxy)-1-fluoro-5,6,6a,7,8,9,10,11-octahydro-4-oxa-3,11a,12,14,15-pentaaza[7,10]methanocyclohepta[4,5]cycloocta[1,2,3-de]naphthalen-2-yl)-5-methyl-4-(trifluoromethyl)aniline], for which the IC50 at KRAS G12D (setting [1]) was below 0.3 nM; on WT KRAS (setting [2]), 0.3 to 3 nM.

What is called IC50 is the concentration that gives 50% inhibition.
